Source: patent US8410107B2, “N-pyridin-3-yl or N-pyrazin-2-yl carboxamides” (Hoffmann-La Roche Inc., priority 2010, dated 2013)

Experiments:
human CB1 receptor = target: T1, human CB1 receptor (Homo sapiens, UniProt P21554); test: CB1 receptor affinity ([3H]-CP-55,940 displacement, HEK cell membranes); format: binding; conditions: displacement of radioligand [3H]-CP-55,940
T1 construct: expressed in transfected cells; host or cells: human embryonic kidney (HEK) cells, Semliki Forest Virus system, membrane preparations
T1 sequence (P21554 whole entry): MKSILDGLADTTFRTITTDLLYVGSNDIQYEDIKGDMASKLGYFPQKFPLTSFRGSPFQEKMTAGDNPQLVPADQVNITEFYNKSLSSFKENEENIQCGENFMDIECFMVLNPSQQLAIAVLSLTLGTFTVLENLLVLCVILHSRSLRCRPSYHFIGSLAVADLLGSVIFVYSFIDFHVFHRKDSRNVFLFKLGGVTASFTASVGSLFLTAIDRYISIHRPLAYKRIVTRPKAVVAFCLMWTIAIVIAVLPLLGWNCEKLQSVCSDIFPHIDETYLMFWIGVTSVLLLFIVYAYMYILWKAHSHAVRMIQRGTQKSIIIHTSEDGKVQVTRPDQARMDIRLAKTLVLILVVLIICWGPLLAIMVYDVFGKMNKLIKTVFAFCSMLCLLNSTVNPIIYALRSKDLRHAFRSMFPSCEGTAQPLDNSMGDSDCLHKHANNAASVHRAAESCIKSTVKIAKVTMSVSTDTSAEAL
Experimental: (§1) The affinity of the compounds of the invention for cannabinoid receptors was determined using membrane preparations of human embryonic kidney (HEK) cells in which the human CB1 receptor is transiently transfected using a Semliki Forest Virus system in conjunction with [3H]-CP-55,940 as radioligand. After incubation of freshly prepared cell membrane preparation with the [^3H]-ligand, with or without addition of compounds of the invention, separation of bound and free ligand was performed by filtration over glass fiber filters. Radioactivity on the filter was measured by scintillation counting.
(§2) The ability of the compounds to displace the radioligand [^3H]-CP-55,940 was measured at a concentration of 10 μM and values provided as [% inhibition @ 10 μM] both for the CB1 and CB2 receptor assay, The lower % inhibition is, the lower the likelihood of side effects based on CB1 or CB2 receptor inhibition is.

human CB2 receptor = target: T2, human CB2 receptor (Homo sapiens, UniProt P34972); test: CB2 receptor affinity ([3H]-CP-55,940 displacement, HEK cell membranes); format: binding; conditions: displacement of radioligand [3H]-CP-55,940
T2 construct: expressed in transfected cells; host or cells: human embryonic kidney (HEK) cells, Semliki Forest Virus system, membrane preparations
T2 sequence (P34972 whole entry): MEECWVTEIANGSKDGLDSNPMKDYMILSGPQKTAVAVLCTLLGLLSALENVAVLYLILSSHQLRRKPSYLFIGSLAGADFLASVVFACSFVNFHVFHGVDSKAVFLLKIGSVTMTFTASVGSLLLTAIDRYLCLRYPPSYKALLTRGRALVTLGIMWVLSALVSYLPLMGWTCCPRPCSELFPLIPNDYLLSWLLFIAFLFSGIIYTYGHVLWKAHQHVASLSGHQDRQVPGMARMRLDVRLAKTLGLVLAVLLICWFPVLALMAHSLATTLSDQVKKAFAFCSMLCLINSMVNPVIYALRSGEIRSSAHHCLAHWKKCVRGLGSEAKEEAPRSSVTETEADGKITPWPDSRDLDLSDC
Experimental: as §1, with “cannabinoid CB2” for “cannabinoid”, “CB2” for “CB1”, “[^3H]-CP-55,940” for “[3H]-CP-55,940”
as §2

ABCA1 protein = test: Detection of upregulation of ABCA1 protein in cells (ApoA-I binding, high content image analysis); format: cell-based; conditions: THP-1 macrophage cells; for EC50: ABCA1 protein increasing efficacy; for % increase of ABCA1 at 3 μM: 24 hrs with compound
Experimental: The ability of compounds of the invention to increase the level of ABCA1 protein is determined in replicate cultures of THP-1 macrophage cells in 96-well microplates. Cells are plated at an initial density of 100,000 cells/well in 100 μl medium and differentiated to adherent macrophages with the addition of PMA (100 nM) for 68 hrs in 10% fetal bovine serum, 3 μl/L of b-mercaptoethanol, RPMI-1640 medium. Then, cells are incubated with RPMI-1640 medium containing 1% FCS, 25 μg/ml acetylated LDL, for 24 hours at 37°. Following incubation with acetylated LDL, cells are washed twice with 50 μl PBS and incubated with 100 μl of RPMI-1640 medium containing the compound of interest solubilized in DMSO for an additional 24 hrs. The final DMSO concentration in presence of cells is maintained at 0.5%. ApoA-I binding assay using High Content Image Analysis is initiated by replacing with fresh medium, RPMI without Phenol Red, 0.2% BSA containing AlexaFluor®647 labeled ApoA-I for 2 h/37° C./5% CO2. Then, cells are fixed with 4% Formaldehyde inPBS (15 min, RT). Following Nuclei are stained with Hoechst solution (3 μM PBS) and Cytoplasm with Cell Mask Blue (2 μg/ml PBS), 15 min, RT. Finally the stained cells are fixed with a second round of formaldehyde treatment. Fixed stained cells are washed and kept in PBS at 4° C. and can be read immediately until one month after preparation.
The Alexa Fluor 647-labeled Apolipoprotein A-I (20 nM) was prepared as follows: Human recombinant Apolipoprotein A-I (ApoA-I) was exchanged to a buffer of 0.02 M NaHCO3 at pH 8.2 on an NAP desalting column (GE Healthcare) and brought to a concentration to 40 μM (1.13 mg/ml) by adjustment with the same buffer. The ApoA-I was fluorescently labeled by incubation with Alexa Fluor carboxylic acid succimidyl ester. (Alexa Fluor 647, Invitrogen A-20006) at a 2:1 molar ratio (Alexa to ApoA-I) for 1 h under shaking at RT. The remaining unconjugated label was removed by buffer exchange to 0.02M NaHCO3 at pH 8.2.
Imaging and data collection were performed on an OPERA confocal microplate imaging reader using a 20× water immersion objective and UV360 or 405 laser to identify the cell nuclei and a 635 laser to identify the fluorescent ApoA-I. Eight fields of view are captured per well. Image capture and analysis was performed with the Acapella software. Background fluorescence detected in control wells without ApoA-I was subtracted.
Using XLfit3 program (ID Business Solutions Ltd. UK), the model 205 for Dose Response One Site is used to calculate the EC50 values. The compounds of the present invention increase the level of ABCA1 protein by more than 45% at a concentration of 3 μM. […] Even more preferably, the compounds of the present invention have EC50 values in a range of 0.1 μM to 3 μM.

Structure (SMILES) | inhibition at 10 µM (human CB1 receptor) | inhibition at 10 µM (human CB2 receptor) | EC50 (ABCA1 protein) | % increase of ABCA1 at 3 μM (ABCA1 protein)
O=C(Nc1cnc(OCC(F)(F)F)c(-c2ccc(Cl)cc2)c1)c1ccc(O)cn1 [Example 40, 5-hydroxy-pyridine-2-carboxylic acid[5-(4-chloro-phenyl)-6-(2,2,2-trifluoro-ethoxy)-pyridin-3-yl]-amide] | 19% | -5% | 3310 nM | –
Cc1cncc(C(=O)Nc2cnc(OCC(F)(F)F)c(-c3ccc(Cl)cc3)c2)c1 [Example 41, N-(5-(4-chlorophenyl)-6-(2,2,2-trifluoroethoxy)pyridin-3-yl)-5-methylnicotin-amide] | 31% | 8% | – | >45% @ 3 μM
C[C@H](Oc1ncc(NC(=O)c2cccnc2)cc1-c1ccc(Cl)cc1)C(F)(F)F [Example 43, (S)-N-(5-(4-chlorophenyl)-6-(1,1,1-trifluoropropan-2-yloxy)pyridin-3-yl)nicotinamide] | 31% | 6% | 5950 nM | –
CCc1ccc(-c2cc(NC(=O)c3cccnc3)cnc2OCC(F)(F)F)cc1 [Example 47, N-(5-(4-ethylphenyl)-6-(2,2,2-trifluoroethoxy)pyridin-3-yl)nicotinamide] | 34% | 5% | 1360 nM | –
O=C(Nc1cnc(OCC(F)(F)F)c(-c2ccc(Cl)cc2)n1)c1cccnc1 [Example 49, N-(6-(4-chlorophenyl)-5-(2,2,2-trifluoroethoxy)pyrazin-2-yl)nicotinamide] | 39% | -3% | 300 nM | –
O=C(Nc1cnc(OC2CCC2)c(-c2ccc(Cl)cc2)n1)c1cccnc1 [Example 50, N-(6-(4-chlorophenyl)-5-cyclobutoxypyrazin-2-yl)nicotinamide] | 39% | -1% | 1500 nM | –
O=C(Nc1cnc(OC2CCC2)c(-c2ccc(Cl)cc2)n1)c1cncnc1 [Example 51, N-(6-(4-chlorophenyl)-5-cyclobutoxypyrazin-2-yl)pyrimidine-5-carboxamide] | 48% | 6% | – | >45% @ 3 μM
Cc1cc(-c2cc(NC(=O)c3cncnc3)cnc2OCC(F)(F)F)ccc1Cl [Example 52, N-(5-(4-chloro-3-methylphenyl)-6-(2,2,2-trifluoroethoxy)pyridin-3-yl)pyrimidine-5-carboxamide] | 34% | 6% | – | >45% @ 3 μM
O=C(Nc1cnc(OCC(F)(F)F)c(-c2ccc(F)c(Cl)c2)c1)c1cncnc1 [Example 54, N-(5-(3-chloro-4-fluorophenyl)-6-(2,2,2-trifluoroethoxy)pyridin-3-yl)pyrimidine-5-carboxamide] | 21% | 10% | – | >45% @ 3 μM
O=C(Nc1cnc(OCC(F)(F)F)c(-c2ccc(Cl)cc2F)c1)c1cncnc1 [Example 55, N-(5-(4-chloro-2-fluorophenyl)-6-(2,2,2-trifluoroethoxy)pyridin-3-yl)pyrimidine-5-carboxamide] | 35% | 4% | – | >45% @ 3 μM
Cc1cc(-c2cc(NC(=O)c3ccnc(O)c3)cnc2OCC(F)(F)F)ccc1Cl [Example 57, N-(5-(4-chloro-3-methylphenyl)-6-(2,2,2-trifluoroethoxy)pyridin-3-yl)-2-hydroxyisonicotinamide] | 0% | -18% | – | >45% @ 3 μM
Cc1cc(-c2cc(NC(=O)c3cn(C)nc3C)cnc2OCC(F)(F)F)ccc1Cl [Example 58, N-(5-(4-chloro-3-methylphenyl)-6-(2,2,2-trifluoroethoxy)pyridin-3-yl)-1,3-dimethyl-1H-pyrazole-4-carboxamide] | 3% | -13% | 2200 nM | –
Cc1cc(-c2cc(NC(=O)c3cncc(C#N)c3)cnc2OCC(F)(F)F)ccc1Cl [Example 61, N-(5-(4-chloro-3-methylphenyl)-6-(2,2,2-trifluoroethoxy)pyridin-3-yl)-5-cyanonicotinamide] | 17% | 12% | – | >45% @ 3 μM

Further lines, with some results ahead:

inhibition at 10 µM (human CB1 receptor) | inhibition at 10 µM (human CB2 receptor) | Structure (SMILES) | EC50 (ABCA1 protein) | % increase of ABCA1 at 3 μM (ABCA1 protein)
23% | 6% | C[C@H](Oc1ncc(NC(=O)c2cccnn2)cc1-c1ccc(Cl)cc1)C(F)(F)F [Example 42, (S)-N-(5-(4-chlorophenyl)-6-(1,1,1-trifluoropropan-2-yloxy)pyridin-3-yl)pyridazine-3-carboxamide] | 8540 nM | –
15% | 14% | O=C(Nc1cnc(OCC(F)(F)F)c(-c2ccc(Cl)c(F)c2)c1)c1cccnc1 [Example 44, N-(5-(4-chloro-3-fluorophenyl)-6-(2,2,2-trifluoroethoxy)pyridin-3-yl)nicotin-amide] | 1260 nM | –
11% | 13% | O=C(Nc1cnc(OCC(F)(F)F)c(-c2ccc(F)c(Cl)c2)c1)c1cccnc1 [Example 45, N-(5-(3-chloro-4-fluorophenyl)-6-(2,2,2-trifluoroethoxy)pyridin-3-yl)nicotin-amide] | 1030 nM | –
40% | -1% | O=C(Nc1cnc(OCC(F)(F)F)c(-c2ccc(Cl)cc2F)c1)c1cccnc1 [Example 46, N-(5-(4-chloro-2-fluorophenyl)-6-(2,2,2-trifluoroethoxy)pyridin-3-yl)nicotin-amide] | – | >45% @ 3 μM
40% | -2% | C[C@H](Oc1ncc(NC(=O)c2cccnc2)nc1-c1ccc(Cl)cc1)C(F)(F)F [Example 48, (S)-N-(6-(4-chlorophenyl)-5-(1,1,1-trifluoropropan-2-yloxy)pyrazin-2-yl)nicotinamide] | – | >45% @ 3 μM
21% | 0% | O=C(Nc1cnc(OCC(F)(F)F)c(-c2ccc(Cl)c(F)c2)c1)c1cncnc1 [Example 53, N-(5-(4-chloro-3-fluorophenyl)-6-(2,2,2-trifluoroethoxy)pyridin-3-yl)pyrimidine-5-carboxamide] | – | >45% @ 3 μM
35% | 0% | CCc1ccc(-c2cc(NC(=O)c3cncnc3)cnc2OCC(F)(F)F)cc1 [Example 56, N-(5-(4-ethylphenyl)-6-(2,2,2-trifluoroethoxy)pyridin-3-yl)pyrimidine-5-carboxamide] | – | >45% @ 3 μM
22% | 18% | Cc1cc(-c2cc(NC(=O)c3c(F)ccnc3F)cnc2OCC(F)(F)F)ccc1Cl [Example 59, N-(5-(4-chloro-3-methylphenyl)-6-(2,2,2-trifluoroethoxy)pyridin-3-yl)-2,4-difluoronicotinamide] | 3900 nM | –
38% | -2% | O=C(Nc1cnc(OCC(F)(F)F)c(-c2ccc(Cl)cc2)c1)c1ccccc1O [Example 60, N-(5-(4-chlorophenyl)-6-(2,2,2-trifluoroethoxy)pyridin-3-yl)-2-hydroxy-benzamide] | – | >45% @ 3 μM
